Results from PubChem BioAssay AID330 (DTP/NCI, 2004).
“And” between values parts separate entries of the source, which are not always exact repeats. Equal values may be shown once. Inconclusive results and toxic doses are left out. The calls were made as follows: active = survival T/C of 150% or more; inactive = T/C below 125% in these data. Peptide text beside a SMILES is read from it. * marks the point of attachment. Cbz = O=C(OCc1ccccc1)*

Tested on: P388 leukemia ip, CD2F1 mice, survival T/C
Assay: NCI In Vivo Anticancer Drug Screen. Data for tumor model P388 Leukemia (intraperitoneal) in CD2F1 (CDF1) mice
Conditions: endpoint: median survival time, higher = longer survival
Outline: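 Mice carrying the transplanted tumor received test compound or vehicle. Survival was recorded in each group, and the value is the treated-group measurement divided by that of the vehicle-treated control group.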

[1] = dose: 60.0 mg/kg/injection, schedule: Q01DX005 (ip), vehicle: saline with Tween-80
[2] = dose: 120.0 mg/kg/injection, schedule: Q01DX005 (ip), vehicle: saline with Tween-80
[3] = dose: 240.0 mg/kg/injection, schedule: Q01DX005 (ip), vehicle: saline with Tween-80
[4] = dose: 15.0 mg/kg/injection, schedule: Q01DX005 (ip), vehicle: saline with Tween-80

Measured: T/C

Cc1nn(C(N)=S)c(C)c1N=Nc1ccc([N+](=O)[O-])cc1
inactive: dose: 100.0 mg/kg/injection, schedule: Q01DX001 (ip), vehicle: Klucel (hydroxypropylcellulose) (HPC) 104 % of control | dose: 200.0 mg/kg/injection, schedule: Q01DX001 (ip), vehicle: Klucel (hydroxypropylcellulose) (HPC) 108 % of control | dose: 400.0 mg/kg/injection, schedule: Q01DX001 (ip), vehicle: Klucel (hydroxypropylcellulose) (HPC) 113 % of control

CC1(C)CC(=O)C2=C(C1)Oc1c(Cl)cc(Cl)cc1C2
inactive: dose: 50.0 mg/kg/injection, schedule: Q01DX009 (ip), vehicle: saline 108 % of control | dose: 100.0 mg/kg/injection, schedule: Q01DX009 (ip), vehicle: saline 98 % of control | dose: 200.0 mg/kg/injection, schedule: Q01DX009 (ip), vehicle: saline 92 % of control

CSCCC(NC(=O)C1CCCN1C(=O)OCc1ccccc1)C(=O)O (stereo not drawn) (Cbz-Pro-Met-OH; configuration not given here)
inactive: dose: 50.0 mg/kg/injection, schedule: Q01DX005 (ip), vehicle: saline with Tween-80 104 % of control | dose: 100.0 mg/kg/injection, schedule: Q01DX005 (ip), vehicle: saline with Tween-80 106 % of control | dose: 200.0 mg/kg/injection, schedule: Q01DX005 (ip), vehicle: saline with Tween-80 105 % of control

CC(=O)c1c(O)c(C)c(O)c2c1OC1=Cc3onc(C)c3C(=O)C12C (stereo unspecified)
inactive: dose: 50.0 mg/kg/injection, schedule: Q01DX009 (ip), vehicle: gum acacia 99 % of control and 102 % of control | dose: 100.0 mg/kg/injection, schedule: Q01DX009 (ip), vehicle: gum acacia 102 % of control and 104 % of control | dose: 200.0 mg/kg/injection, schedule: Q01DX009 (ip), vehicle: gum acacia 92 % of control and 93 % of control

Cc1ccc(C(=O)Cc2nc3nnc(N)n3nc2CC(=O)c2ccc(C)cc2)cc1
inactive: dose: 50.0 mg/kg/injection, schedule: Q01DX005 (ip), vehicle: saline 97 % of control | dose: 100.0 mg/kg/injection, schedule: Q01DX005 (ip), vehicle: saline 100 % of control | dose: 200.0 mg/kg/injection, schedule: Q01DX005 (ip), vehicle: saline 97 % of control

COc1cccc2c1C(=O)c1c(O)c3c(c(O)c1C2=O)CC(O)(C(C)=O)CC3OC1CC(NCC2(O)OCC(O)C(OC3OC(CO)C(O)C(O)C3O)C2O)C(O)C(C)O1 (stereo unspecified)
inactive: dose: 1.56 mg/kg/injection, schedule: Q04DX003 (ip), vehicle: water 100 % of control | dose: 3.12 mg/kg/injection, schedule: Q04DX003 (ip), vehicle: water 98 % of control and 99 % of control | dose: 3.13 mg/kg/injection, schedule: Q04DX003 (ip), vehicle: water 95 % of control | dose: 6.25 mg/kg/injection, schedule: Q04DX003 (ip), vehicle: water 99 % of control and 102 % of control and 103 % of control | dose: 12.5 mg/kg/injection, schedule: Q04DX003 (ip), vehicle: water 100 % of control | dose: 25.0 mg/kg/injection, schedule: Q04DX003 (ip), vehicle: water 105 % of control and 108 % of control and 119 % of control | dose: 50.0 mg/kg/injection, schedule: Q04DX003 (ip), vehicle: water 119 % of control

C=CCn1c(=O)n(C)c(=O)c2[nH]c(Cl)nc21
inactive: dose: 16.0 mg/kg/injection, schedule: Q01DX009 (ip), vehicle: Klucel (hydroxypropylcellulose) (HPC) 108 % of control | dose: 32.0 mg/kg/injection, schedule: Q01DX009 (ip), vehicle: Klucel (hydroxypropylcellulose) (HPC) 103 % of control | dose: 50.0 mg/kg/injection, schedule: Q01DX009 (ip), vehicle: Klucel (hydroxypropylcellulose) (HPC) 110 % of control | dose: 64.0 mg/kg/injection, schedule: Q01DX009 (ip), vehicle: Klucel (hydroxypropylcellulose) (HPC) 104 % of control | dose: 100.0 mg/kg/injection, schedule: Q01DX009 (ip), vehicle: Klucel (hydroxypropylcellulose) (HPC) 112 % of control

Nc1ncc(S(=O)(=O)c2ccc([N+](=O)[O-])cc2)c(N)n1
inactive: dose: 75.0 mg/kg/injection, schedule: Q01DX009 (ip), vehicle: suspension in saline 96 % of control | dose: 150.0 mg/kg/injection, schedule: Q01DX009 (ip), vehicle: suspension in saline 98 % of control | dose: 300.0 mg/kg/injection, schedule: Q01DX009 (ip), vehicle: suspension in saline 92 % of control

COc1ccc(C(c2cc3c(cc2O)OCO3)N2CCOCC2)cc1 (stereo unspecified)
inactive: [1] 118 % of control | [2] 109 % of control and 119 % of control | [3] 120 % of control

Nc1nc(Cl)c(C=O)c(Cl)n1
inactive: dose: 12.5 mg/kg/injection, schedule: Q01DX009 (ip), vehicle: saline with Tween-80 96 % of control | dose: 25.0 mg/kg/injection, schedule: Q01DX009 (ip), vehicle: saline with Tween-80 100 % of control and 119 % of control | dose: 50.0 mg/kg/injection, schedule: Q01DX009 (ip), vehicle: saline with Tween-80 100 % of control and 120 % of control | dose: 100.0 mg/kg/injection, schedule: Q01DX009 (ip), vehicle: saline with Tween-80 115 % of control

COC(=O)c1nnc(C(=O)OC)c2c1[nH]c1ccccc12
inactive: [1] 96 % of control | [2] 103 % of control | [3] 94 % of control

Cc1ccc(NC(=S)C#N)c(C)c1
inactive: [4] 102 % of control | dose: 30.0 mg/kg/injection, schedule: Q01DX005 (ip), vehicle: saline with Tween-80 98 % of control | [1] 98 % of control and 106 % of control

C=C(C)C1CCC2(C)C1CCC1(C)C2CCC2C3(C)C4OC(OC4=O)C(C)(C)C3CCC21C (stereo unspecified)
inactive: dose: 25.0 mg/kg/injection, schedule: Q01DX005 (ip), vehicle: DMSO 98 % of control | dose: 50.0 mg/kg/injection, schedule: Q01DX005 (ip), vehicle: DMSO 100 % of control | dose: 100.0 mg/kg/injection, schedule: Q01DX005 (ip), vehicle: DMSO 100 % of control | dose: 200.0 mg/kg/injection, schedule: Q01DX005 (ip), vehicle: DMSO 113 % of control | dose: 400.0 mg/kg/injection, schedule: Q01DX005 (ip), vehicle: DMSO 108 % of control

COc1cccc2c1C(=O)c1c(OC)c(CSC(=N)N)cc(OC)c1C2=O
inactive: dose: 2.0 mg/kg/injection, schedule: Q01DX009 (ip), vehicle: water 99 % of control | dose: 4.0 mg/kg/injection, schedule: Q01DX009 (ip), vehicle: water 104 % of control | dose: 8.0 mg/kg/injection, schedule: Q01DX009 (ip), vehicle: water 104 % of control | dose: 16.0 mg/kg/injection, schedule: Q01DX009 (ip), vehicle: water 117 % of control | dose: 32.0 mg/kg/injection, schedule: Q01DX009 (ip), vehicle: water 121 % of control | dose: 64.0 mg/kg/injection, schedule: Q01DX009 (ip), vehicle: water 111 % of control

O=c1[nH]ccc2nc(-c3ccccc3)cn12
inactive: dose: 100.0 mg/kg/injection, schedule: Q04DX003 (ip), vehicle: Klucel (hydroxypropylcellulose) (HPC) 106 % of control | dose: 200.0 mg/kg/injection, schedule: Q04DX003 (ip), vehicle: Klucel (hydroxypropylcellulose) (HPC) 104 % of control | dose: 400.0 mg/kg/injection, schedule: Q04DX003 (ip), vehicle: Klucel (hydroxypropylcellulose) (HPC) 105 % of control

Cc1c2cc[n+](Cc3ccc(I)cc3)cc2c(C)c2c1[nH]c1ccccc12
inactive: dose: 11.75 mg/kg/injection, schedule: Q04DX002 (ip), vehicle: saline with Tween-80 112 % of control | dose: 23.5 mg/kg/injection, schedule: Q04DX002 (ip), vehicle: saline with Tween-80 116 % of control | dose: 47.0 mg/kg/injection, schedule: Q04DX002 (ip), vehicle: saline with Tween-80 124 % of control

C[Si](C)(C)/C=C1\OC=CC(c2ccccc2)O1 (stereo unspecified)
inactive: dose: 100.0 mg/kg/injection, schedule: Q01DX001 (ip), vehicle: saline with Tween-80 99 % of control | dose: 200.0 mg/kg/injection, schedule: Q01DX001 (ip), vehicle: saline with Tween-80 100 % of control | dose: 400.0 mg/kg/injection, schedule: Q01DX001 (ip), vehicle: saline with Tween-80 103 % of control

COc1ccc(Cc2cc3c(cc2OC)OCO3)cc1
inactive: dose: 2.5 mg/kg/injection, schedule: Q01DX009 (ip), vehicle: saline with Tween-80 99 % of control | dose: 5.0 mg/kg/injection, schedule: Q01DX009 (ip), vehicle: saline with Tween-80 99 % of control | dose: 10.0 mg/kg/injection, schedule: Q01DX009 (ip), vehicle: saline with Tween-80 99 % of control | [4] 102 % of control | dose: 31.0 mg/kg/injection, schedule: Q01DX005 (ip), vehicle: saline with Tween-80 102 % of control | dose: 62.5 mg/kg/injection, schedule: Q01DX005 (ip), vehicle: saline with Tween-80 109 % of control | dose: 125.0 mg/kg/injection, schedule: Q01DX005 (ip), vehicle: saline with Tween-80 103 % of control | dose: 250.0 mg/kg/injection, schedule: Q01DX005 (ip), vehicle: saline with Tween-80 103 % of control
